Measurements published in patent publication US9409893B2, “Heteroaryl derivatives and uses thereof” (Jacobus Pharmaceutical Company, Inc., priority 2012, dated 2016).
Structures can show the parent of a compound that is named as a salt. Where two headings read alike, the source gives them in different places.

Tests used:
P. falciparum strain D6 = assay: [3H]-hypoxanthine growth inhibition assay, P. falciparum D6; assay type: cell-based; conditions: Plasmodium falciparum
Protocol: (§1) The potential for antimalarial activity against Plasmodium falciparum was determined by measuring the incorporation of tritiated hypoxanthine into parasitized red blood cells.
(§2) Stock solutions of the test compounds and the reference drug chloroquine (CQ) (Sigma Chemicals C-6628, Lot #059H0919) were prepared in silanized glass vials with AquaSil™ (Pierce, USA) to minimize absorption of the compounds to glassware. All test compounds were dissolved in DMSO (Sigma Cat No. #D8418) to 1 mM concentration, whereas CQ was dissolved in 50% methanol at a concentration of 1.6 mg/ml (base). Stock solutions were stored at −20° C.
(§3) The P. falciparum laboratory adapted strains utilized in this project (Table 1) were in vitro cultured and routinely maintained in RPMI-1640-LPLF complete medium, which contained low concentrations of para-amino benzoic acid (0.0005 mg/L) and folic acid (0.01 mg/L).
(§4) The low concentration of folic acid in RPMI-1640-LPLF prevents inhibition of the compound if its activity targets the parasite's folate metabolic pathway. Parasites were cultured in human red blood cells (RBCs) in vitro at 37° C. in special gas mixture (5% O2, 5% CO2 and 90% N2) as described Trager and Jensen (1979 Science 193:673-675).
(§5) Base cultivation medium consisted of 10.4 g/L RPMI-1640-LPLF powder (Gibco BRL), 5.97 g/L HEPES buffer (MP Biomedicals, USA), 2.0 g/L D-glucose (BDH chemicals, Australia), 0.05 g/L hypoxanthine (Sigma, USA) and 40 mg/L gentamycin (Pfizer, Australia). The pH of the medium was adjusted to 6.9 and the solution was filtered using 0.2 μm pore size (AcroCap, Gelman Science, USA). Complete medium was prepared by adding sodium bicarbonate solution (final concentration, 0.21%) and drug-free heat-inactivated human plasma, pooled from various blood types, obtained from the Australian Red Cross Blood Service (Brisbane) (final concentration, 10%) to the base RPMI-1640-LPLF. For [^3H]-hypoxanthine inhibition growth assay, RPMI-1640-LPLF complete medium which lacked [^3H]-hypoxanthine ([^3H]-RPMI-1640-LPLF) was used to prevent uptake of hypoxanthine by parasites, as radioactive hypoxanthine uptake is measured as a surrogate marker of growth. All complete medium was used within three days of preparation. See DE (Para) SOP 002 for methodology.
(§6) Red blood cells (RBC) were required for P. falciparum parasites to proliferate in vitro. 0 (Rh+) type blood was obtained from the Australian Red Cross Blood Service. The RBC were washed twice in phosphate-buffered saline (PBS) and once in [^3H]-RPMI-1640-LPLF complete medium by centrifugation at 1,500×g for 5 min. Following the final wash, the haematocrit was measured as the percent of RBC to total culture volume. The haematocrit was adjusted to 50% by removing or adding [^3H]-RPMI-LPLF complete medium. See DE (Para) SOP 003 for methodology.
(§7) All P. falciparum strains were grown in RPMI-1640-LPLF complete medium at 4% haematocrit and 1% to 8% parasitaemia at 37° C. in sealed flasks in a gas mixture of 5% O2, 5% CO2 and 90% N2 (BOC Gases, Brisbane, Australia). For drug susceptibility assays cultures were routinely synchronized when the majority of parasites (>85%) were at early trophozoite (ring) stage. Synchronization involved removing the more mature erythrocytic parasite stages by lysis, resulting in the retention only of early trophozoite (ring) stages. Synchronization was performed by re-suspending the infected red blood cell (iRBC) pellet in 5 to 10 times its volume of 5% D-sorbitol (Bacto Laboratories Pty. Ltd., Australia) for 5 min (Lambros and Vanderberg, 1979 J Parasitol 65: 418-420). The mixture was centrifuged (1,500 rpm for 5 min) and the supernatant removed. The iRBC were washed twice using PBS buffer and once using [^3H]-RPMI-LPLF plain medium. Following synchronization, a new culture was prepared with an initial parasitaemia of 1% in RPMI-LPLF complete medium. See DE (Para) SOP 008 for methodology.

P. falciparum strain W2 = assay: [3H]-hypoxanthine growth inhibition assay, P. falciparum W2; assay type: cell-based; conditions: Plasmodium falciparum
Protocol: as §1, §2, §3, §4, §5, §6, §7

[1] = P. falciparum D6 (sensitive to chloroquine and pyrimethamine), [3H]-hypoxanthine incorporation, read-out: D6 IC50
[2] = P. falciparum W2 (resistant to chloroquine and pyrimethamine), [3H]-hypoxanthine incorporation, read-out: W2 IC50

SMILES	IC50 (P. falciparum strain D6; [1]) [nM]	IC50 (P. falciparum strain W2; [2]) [nM]	IC50 (P. falciparum strain D6; D6, read-out: D6 IC50) [nM]	IC50 (P. falciparum strain W2; W2, read-out: W2 IC50) [nM]
COc1cc(-c2cc(C(C)(C)C)cc(CNC(C)(C)C)c2O)ccn1 [Example 16, 4-(tert-Butyl)-2-((tert-butylamino)methyl)-6-(2-methoxypyridin-4-yl)phenol dihydrochloride]	–	–	26	11
CC(C)(C)NCc1cc(C(C)(C)C)cc(-c2cc3ccccc3o2)c1O [Example 6, 2-(Benzofuran-2-yl)-4-(tert-butyl)-6-((tert-butylamino)methyl)phenol hydrochloride]	31	13	–	–
Cn1nc(C(F)(F)F)cc1-c1cc(C(C)(C)C)cc(CNC(C)(C)C)c1O [Example 9, 4-(tert-Butyl)-2-((tert-butylamino)methyl)-6-(1-methyl-3-(trifluoromethyl)-1H-pyrazol-5-yl)phenol hydrochloride]	94	48	–	–
CC(C)(C)NCc1cc(C(C)(C)C)cc(-c2ccc(N3CCCC3)nc2)c1O [Example 15, 4-(tert-Butyl)-2-((tert-butylamino)methyl)-6-(6-(pyrrolidin-1-yl)pyridin-3-yl)phenol dihydrochloride]	–	–	24	16
CC(C)(C)NCc1cc(C(C)(C)C)cc(-c2ccc(C(C)(C)C)nc2)c1O [Example 22, 4-(tert-Butyl)-2-(6-(tert-butyl)pyridin-3-yl)-6-((tert-butylamino)methyl)phenol dihydrochloride]	–	–	64	24

Further lines, with some results ahead:

IC50 (P. falciparum strain D6; [1]) [nM]	IC50 (P. falciparum strain W2; [2]) [nM]	SMILES	IC50 (P. falciparum strain D6; D6, read-out: D6 IC50) [nM]	IC50 (P. falciparum strain W2; W2, read-out: W2 IC50) [nM]
244	214	CC(C)(C)c1cc(CN2CCOCC2)c(O)c(-c2ccc(C(F)(F)F)nc2)c1 [Example 49, 4-(tert-Butyl)-2-(morpholinomethyl)-6-(6-(trifluoromethyl)pyridin-3-yl)phenol hydrochloride]	–	–
23	14	CC(C)(C)c1cc(CN2CCCC2)c(O)c(-c2ccc(C(F)(F)F)nc2)c1 [Example 52, 4-(tert-Butyl)-2-(pyrrolidin-1-ylmethyl)-6-(6-(trifluoromethyl)pyridin-3-yl)phenol hydrochloride]	–	–
34	29	CC(C)(C)c1cc(CNCCC(F)(F)F)c(O)c(-c2ccc(C(F)(F)F)nc2)c1 [Example 57, 4-(tert-Butyl)-2-(6-(trifluoromethyl)pyridin-3-yl)-6-(((3,3,3-trifluoropropyl)amino)methyl)phenol hydrochloride]	–	–
275	106	CN(Cc1cc(C(C)(C)C)cc(-c2ccc(C(F)(F)F)nc2)c1O)C(C)(C)C [Example 45, 4-(tert-Butyl)-2-((tert-butyl(methyl)amino)methyl)-6-(6-(trifluoromethyl)pyridin-3-yl)phenol hydrochloride]	–	–
231	79	CC(C)(C)NCc1cc(C(C)(C)C)cc(-c2ccc(C(F)(F)F)cn2)c1O [Example 40, 4-(tert-Butyl)-2-((tert-butylamino)methyl)-6-(5-(trifluoromethyl)pyridin-2-yl)phenol]	–	–
6320	6120	CC(C)(C)NCc1cc(C(C)(C)C)cc(-c2ncc(C(F)(F)F)cn2)c1O [Example 54, 4-(tert-Butyl)-2-((tert-butylamino)methyl)-6-(5-(trifluoromethyl)pyrimidin-2-yl)phenol hydrochloride]	–	–
779	401	CC(C)(C)NCc1cc(C(C)(C)C)cc(-c2cnccc2C(F)(F)F)c1O [Example 36, 4-(tert-Butyl)-2-((tert-butylamino)methyl)-6-(4-(trifluoromethyl)pyridin-3-yl)phenol 1.9hydrochloride]	–	–
